Test results as given in PubChem BioAssay (NCI).
Values joined by “and” are separate entries in the source; they are usually repeats but may differ in a detail not shown here. Equal entries are not always repeated.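 Values below derive from 48-hour exposures of cells grown in 96-well plates, with endpoints linearly interpolated between the two concentrations bracketing the appropriate inhibition level. The concentration for 50% growth inhibition is given as GI50. TGI denotes the concentration required for complete inhibition of growth.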

Key:
Assay in all cases: NCI anticancer screen, dose series, 48 h
T-47D breast = system: T-47D breast
MCF7 breast = system: MCF7 breast
MDA-MB-435 = system: MDA-MB-435
OVCAR-8 ovarian = system: OVCAR-8 ovarian
HOP-92 NSCLC = system: HOP-92 NSCLC
SF-295 CNS = system: SF-295 CNS
MALME-3M melanoma = system: MALME-3M melanoma
SNB-75 CNS = system: SNB-75 CNS
SK-MEL-5 melanoma = system: SK-MEL-5 melanoma
SK-MEL-2 melanoma = system: SK-MEL-2 melanoma
UACC-62 melanoma = system: UACC-62 melanoma
EKVX NSCLC = system: EKVX NSCLC
LOX IMVI melanoma = system: LOX IMVI melanoma

**Q.** For `CC(=O)NC1C(OCc2ccccc2)OC(CO)C(O)C1OCC(=O)NC(C)C(=O)NC(CCC(=O)NCCCCCC(=O)Nc1ccc2c(c1)CN1C(=O)c3ccccc3C1=N2)C(N)=O` (configuration not stated), which TGI (T-47D breast) is on record?
**A.** > 100 µM

**Q.** And the TGI (MCF7 breast)?
**A.** > 100 µM

**Q.** What about the TGI (MDA-MB-435) of the same molecule?
**A.** > 100 µM

**Q.** What about the TGI (OVCAR-8 ovarian) of the same molecule?
**A.** > 100 µM

**Q.** What about the TGI (HOP-92 NSCLC) of the same molecule?
**A.** 90.9 µM

**Q.** And the TGI (SF-295 CNS)?
**A.** > 100 µM

**Q.** And the TGI (MALME-3M melanoma)?
**A.** > 100 µM

**Q.** What about the TGI (SNB-75 CNS) of the same molecule?
**A.** > 100 µM

**Q.** What about the TGI (SK-MEL-5 melanoma) of the same molecule?
**A.** > 100 µM

**Q.** And the TGI (SK-MEL-2 melanoma)?
**A.** > 100 µM

**Q.** What about the TGI (UACC-62 melanoma) of the same molecule?
**A.** > 100 µM

**Q.** What about the TGI (EKVX NSCLC) of the same molecule?
**A.** > 100 µM

**Q.** What about the TGI (LOX IMVI melanoma) of the same molecule?
**A.** > 100 µM

**Q.** For `Cc1nnc(N)nc1/C=C\c1cccs1`, which TGI (T-47D breast) is on record?
**A.** > 100 µM

**Q.** And the TGI (MCF7 breast)?
**A.** > 100 µM

**Q.** And the TGI (MDA-MB-435)?
**A.** 74.9 µM

**Q.** And the TGI (OVCAR-8 ovarian)?
**A.** 44.5 µM

**Q.** And the TGI (HOP-92 NSCLC)?
**A.** 97.8 µM

**Q.** And the TGI (SF-295 CNS)?
**A.** > 100 µM

**Q.** What about the TGI (MALME-3M melanoma) of the same molecule?
**A.** 29.4 µM

**Q.** What about the TGI (SK-MEL-2 melanoma) of the same molecule?
**A.** 30.5 µM

**Q.** What about the TGI (UACC-62 melanoma) of the same molecule?
**A.** 49.4 µM

**Q.** And the TGI (EKVX NSCLC)?
**A.** 55.6 µM

**Q.** And the TGI (LOX IMVI melanoma)?
**A.** > 100 µM

**Q.** What does the source list for `Cc1cc(=O)c2c(O)c3c(O)cc(O)c4c5c(O)cc(O)c6c(O)c7c(=O)cc(C)c8c1c2c(c34)c(c65)c78`?
**A.** TGI (T-47D breast): > 100 µM; GI50 (MCF7 breast): > 100 µM and 16.6 µM; TGI (MCF7 breast): > 100 µM and 36.3 µM; TGI (MDA-MB-435): > 100 µM; TGI (OVCAR-8 ovarian): > 100 µM; GI50 (HOP-92 NSCLC): 36.7 µM and 15.1 µM; TGI (HOP-92 NSCLC): > 100 µM and 47.4 µM; GI50 (SF-295 CNS): > 100 µM and 16.6 µM; TGI (SF-295 CNS): > 100 µM and 37.6 µM; TGI (MALME-3M melanoma): > 100 µM; GI50 (SNB-75 CNS): > 100 µM and 32.3 µM; TGI (SNB-75 CNS): > 100 µM; TGI (SK-MEL-5 melanoma): > 100 µM; GI50 (SK-MEL-2 melanoma): > 100 µM and 37.3 µM; TGI (SK-MEL-2 melanoma): > 100 µM and 94 µM; GI50 (UACC-62 melanoma): > 100 µM; TGI (UACC-62 melanoma): > 100 µM; TGI (EKVX NSCLC): > 100 µM; GI50 (LOX IMVI melanoma): > 100 µM and 35.4 µM; TGI (LOX IMVI melanoma): > 100 µM

**Q.** Which TGI (T-47D breast) does the source give for `[N-]=[N+]=C1CNC(=O)NC1=O` here?
**A.** > 100 µM

**Q.** What about the TGI (MCF7 breast) of the same molecule?
**A.** > 100 µM

**Q.** And the TGI (MDA-MB-435)?
**A.** > 100 µM

**Q.** And the TGI (OVCAR-8 ovarian)?
**A.** > 100 µM

**Q.** What about the TGI (HOP-92 NSCLC) of the same molecule?
**A.** > 100 µM

**Q.** And the TGI (SF-295 CNS)?
**A.** > 100 µM

**Q.** And the TGI (MALME-3M melanoma)?
**A.** > 100 µM

**Q.** And the TGI (SNB-75 CNS)?
**A.** > 100 µM

**Q.** And the TGI (SK-MEL-5 melanoma)?
**A.** > 100 µM

**Q.** What about the TGI (SK-MEL-2 melanoma) of the same molecule?
**A.** > 100 µM

**Q.** And the TGI (UACC-62 melanoma)?
**A.** > 100 µM

**Q.** And the TGI (EKVX NSCLC)?
**A.** > 100 µM

**Q.** What about the TGI (LOX IMVI melanoma) of the same molecule?
**A.** > 100 µM

**Q.** How did the TGI (T-47D breast) turn out when `Cc1ccccc1NC(=S)N=Nc1c(O)[nH]c2ccccc12` was run?
**A.** > 100 µM

**Q.** And the TGI (MCF7 breast)?
**A.** > 100 µM

**Q.** What about the TGI (MDA-MB-435) of the same molecule?
**A.** > 100 µM

**Q.** What about the TGI (OVCAR-8 ovarian) of the same molecule?
**A.** > 100 µM

**Q.** What about the TGI (HOP-92 NSCLC) of the same molecule?
**A.** > 100 µM

**Q.** What about the TGI (SF-295 CNS) of the same molecule?
**A.** > 100 µM

**Q.** And the TGI (MALME-3M melanoma)?
**A.** > 100 µM

**Q.** And the TGI (SNB-75 CNS)?
**A.** > 100 µM

**Q.** What about the TGI (SK-MEL-5 melanoma) of the same molecule?
**A.** > 100 µM

**Q.** And the TGI (SK-MEL-2 melanoma)?
**A.** > 100 µM

**Q.** What about the TGI (UACC-62 melanoma) of the same molecule?
**A.** > 100 µM

**Q.** And the TGI (EKVX NSCLC)?
**A.** > 100 µM

**Q.** And the TGI (LOX IMVI melanoma)?
**A.** > 100 µM

**Q.** How did the TGI (T-47D breast) turn out when `COc1ccc2[nH]c(C(=O)N3CC(CCl)c4ccc([N+](=O)[O-])cc43)cc2c1` (configuration not stated) was run?
**A.** > 100 µM

**Q.** What about the TGI (MCF7 breast) of the same molecule?
**A.** > 100 µM

**Q.** What about the TGI (MDA-MB-435) of the same molecule?
**A.** > 100 µM

**Q.** And the TGI (OVCAR-8 ovarian)?
**A.** > 100 µM

**Q.** And the TGI (HOP-92 NSCLC)?
**A.** > 100 µM

**Q.** What about the TGI (SF-295 CNS) of the same molecule?
**A.** > 100 µM

**Q.** What about the TGI (MALME-3M melanoma) of the same molecule?
**A.** > 100 µM

**Q.** What about the TGI (SNB-75 CNS) of the same molecule?
**A.** > 88.7 µM

**Q.** And the TGI (SK-MEL-5 melanoma)?
**A.** > 100 µM

**Q.** And the TGI (SK-MEL-2 melanoma)?
**A.** > 100 µM

**Q.** And the TGI (UACC-62 melanoma)?
**A.** > 100 µM

**Q.** And the TGI (EKVX NSCLC)?
**A.** > 100 µM

**Q.** What about the TGI (LOX IMVI melanoma) of the same molecule?
**A.** > 100 µM

**Q.** With `O=C1c2ccccc2C(=O)N1C(=S)c1ccccc1` as the molecule, how does the TGI (T-47D breast) read?
**A.** > 100 µM

**Q.** What about the TGI (MCF7 breast) of the same molecule?
**A.** > 100 µM

**Q.** And the TGI (MDA-MB-435)?
**A.** > 100 µM

**Q.** And the TGI (OVCAR-8 ovarian)?
**A.** > 100 µM

**Q.** What about the TGI (HOP-92 NSCLC) of the same molecule?
**A.** > 100 µM

**Q.** What about the TGI (SF-295 CNS) of the same molecule?
**A.** > 100 µM

**Q.** And the TGI (MALME-3M melanoma)?
**A.** > 100 µM

**Q.** And the TGI (SNB-75 CNS)?
**A.** > 100 µM

**Q.** And the TGI (SK-MEL-5 melanoma)?
**A.** > 100 µM

**Q.** And the TGI (SK-MEL-2 melanoma)?
**A.** > 100 µM

**Q.** And the TGI (UACC-62 melanoma)?
**A.** > 100 µM

**Q.** What about the TGI (EKVX NSCLC) of the same molecule?
**A.** > 100 µM

**Q.** And the TGI (LOX IMVI melanoma)?
**A.** > 100 µM

**Q.** `O=c1c2cc(-c3ccccc3)cnc2sn1-c1ccc([N+](=O)[O-])cc1` was tested. Which TGI (T-47D breast) did it give?
**A.** > 100 µM

**Q.** And the TGI (MCF7 breast)?
**A.** > 100 µM

**Q.** What about the TGI (MDA-MB-435) of the same molecule?
**A.** > 100 µM

**Q.** What about the TGI (OVCAR-8 ovarian) of the same molecule?
**A.** > 100 µM

**Q.** And the TGI (HOP-92 NSCLC)?
**A.** > 100 µM

**Q.** What about the TGI (SF-295 CNS) of the same molecule?
**A.** > 100 µM

**Q.** And the TGI (MALME-3M melanoma)?
**A.** > 100 µM

**Q.** And the TGI (SNB-75 CNS)?
**A.** > 100 µM

**Q.** And the TGI (SK-MEL-2 melanoma)?
**A.** > 100 µM

**Q.** What about the TGI (UACC-62 melanoma) of the same molecule?
**A.** > 100 µM

**Q.** What about the TGI (EKVX NSCLC) of the same molecule?
**A.** > 100 µM
